Reference: article PMC9202104 (BMC Biology, 2022)
Read-outs that look alike come from different tables or passages of the source.

Tested on: ZIKV (PAN2016)
Assay: Time-of-addition experiment in Vero E6 cells
Type: cell-based, Zika virus
Conditions: for inhibition at 15 µM: Zika virus, Vero C1008, Vero E6 cells
Description: Briefly, Vero E6 cells (10^5/well) and/or ZIKV were incubated in 24-well plates with or without the above compounds (15 μM) for 1 h before, 1 h after, or the same time during infection of ZIKV (the detailed procedures were described below and published previously). The following six conditions of ZIKV infection were tested: (1) condition 1: pretreatment of the virus. […] The plaque assay was performed following the standard protocol described above and before. (2) condition 2: pretreatment of cells. […] The unbound ZIKV was removed, and the cells were cultured and plaques calculated as in condition 1. (3) Condition 3: attachment. […] After removal of the unbound ZIKV and compounds, the cells were cultured and plaques calculated as in condition 1. (4) Condition 4: cotreatment. […] After removal of the unbound virus and compounds, the cells were cultured and plaques were calculated as in condition 1. (5) condition 5: fusion. Cells were incubated with ZIKV (PAN2016, 300 PFU) at 4°C for 1 h for ZIKV attachment. […] The unbound compounds were removed, and the cells were cultured and plaques calculated as in condition 1. (6) Condition 6: post-entry. Cells were incubated with ZIKV (PAN2016, 100 PFU) at 37°C for 1 h for ZIKV entry. […] The unbound compounds were then removed, and the cells were cultured and calculated for plaques as in condition 1. Since variant conditions may affect the formation of plaques, the use of different PFUs can ensure that the number of plaques in the DMSO control group is about 100/well for each condition.

Cc1cc2c(C(C)C)c(O)c(O)c(/C=N/n3c(=O)[nH][nH]c3=O)c2c(O)c1-c1c(C)cc2c(C(C)C)c(O)c(O)c(/C=N/n3c(=O)[nH][nH]c3=O)c2c1O [ST087010]
Inhibition of ZIKV infection, condition 2: pretreatment of cells (15 μM, Vero E6 cells): no, or little
Inhibition of ZIKV infection, condition 4: cotreatment (15 μM, Vero E6 cells): no, or little
Inhibition of ZIKV infection, condition 5: fusion (15 μM, Vero E6 cells): no, or little
Inhibition of ZIKV infection, condition 1: pretreatment of the virus (15 μM, virus incubated with compound at 37°C for 1 h before Vero E6 cells): almost completely inhibited
inhibition at 15 µM (4°C 1 h, read-out: Inhibition of ZIKV infection, condition 3: attachment): < 40%
inhibition at 15 µM (read-out: Inhibition of ZIKV infection, condition 6: post-entry): < 20%
